Assay [1] concerns the target receptor tyrosine kinases. Details: method as in PMID 16648571. The following applies: ATP-competitive; cited from earlier work.
Assay [2] deals with T1, PPDK from Flaveria trinervia (Flaveria trinervia, UniProt P22221).
T1 construct: His10 (N); TEV cleavage site (N); made in house; host or cells: E. coli BL21 (DE3)
T1 sequence (P22221 80-953): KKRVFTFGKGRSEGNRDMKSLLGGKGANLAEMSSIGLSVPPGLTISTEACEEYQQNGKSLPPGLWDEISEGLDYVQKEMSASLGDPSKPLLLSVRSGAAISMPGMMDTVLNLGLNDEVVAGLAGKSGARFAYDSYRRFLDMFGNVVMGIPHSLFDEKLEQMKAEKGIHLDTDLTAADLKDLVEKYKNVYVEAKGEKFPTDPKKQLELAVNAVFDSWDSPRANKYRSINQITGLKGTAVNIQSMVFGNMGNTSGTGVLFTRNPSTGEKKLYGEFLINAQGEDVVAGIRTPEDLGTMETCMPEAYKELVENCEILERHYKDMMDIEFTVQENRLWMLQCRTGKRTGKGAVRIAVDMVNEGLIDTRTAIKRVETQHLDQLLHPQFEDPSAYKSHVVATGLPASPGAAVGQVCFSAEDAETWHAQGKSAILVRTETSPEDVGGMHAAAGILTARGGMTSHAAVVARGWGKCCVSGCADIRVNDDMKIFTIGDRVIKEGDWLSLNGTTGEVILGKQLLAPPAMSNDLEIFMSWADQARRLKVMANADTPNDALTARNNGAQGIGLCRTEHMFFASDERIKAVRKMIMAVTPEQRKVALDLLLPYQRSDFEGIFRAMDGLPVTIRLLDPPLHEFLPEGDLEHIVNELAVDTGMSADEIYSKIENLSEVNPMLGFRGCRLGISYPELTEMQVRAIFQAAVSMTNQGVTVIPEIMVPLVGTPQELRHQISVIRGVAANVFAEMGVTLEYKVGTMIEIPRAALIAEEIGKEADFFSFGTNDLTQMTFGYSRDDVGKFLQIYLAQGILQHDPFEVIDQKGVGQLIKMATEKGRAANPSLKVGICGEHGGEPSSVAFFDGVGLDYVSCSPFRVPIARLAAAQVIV
Kind of assay: biochemical. The following applies: for IC50: 0.2 μM PPDK, inhibitor 0-200 μM, mean ± standard error; for Residual PPDK activity relative to DMSO-treated controls: inhibitor 100 μM. The method, then:
Heterologous gene expression and purification of the recombinant PPDK were performed as described in [11]. A modified pET-16b vector (Merck, Darmstadt, GER) which contained an N-terminal histidine10 tag, followed by a TEV cleavage site and the sequence encoding for PPDK from Flaveria trinervia (EMBL X75516) was used for heterologous expression in E. coli strain BL21 (DE3). Transformed cells were grown to an OD600 of 0.6–0.8 in 2YT medium at 30°C before expression was induced by the addition of 0.1 mM isopropyl-β-D-1-thiogalactopyranoside. Cells were harvested after over night incubation at 30°C and 180 rpm. Preceding purification, cells were resuspended in lysis buffer (50 mM Tris/HCl pH 7.5, 300 mM NaCl, 10 mM imidazole, 10 mM MgSO4, 10% (w/v) glycerol, 5 mM DTT, 0.002% (w/v) phenylmethanesulfonylfluoride) and disrupted using a cell disruptor (Constant Systems). PPDK was purified using a nickel affinity chromatography column (GE Healthcare, Munich, GER). Purification (50 mM Tris/HCl pH 7.5, 300 mM NaCl, 10 mM MgSO4, 10% (w/v) glycerol, 5 mM DTT) and elution buffer (50 mM Tris/HCl pH 7.5, 300 mM NaCl, 500 mM imidazole, 10 mM MgSO4, 10% (w/v) glycerol, 5 mM DTT) were used for further purification steps. PPDK bound to the column was washed in steps of 50 mM, 150 mM and 200 mM imidazole, before final elution with 500 mM imidazole. Protein-rich fractions were pooled and a PD-10 desalting column (GE Healthcare) was used to change the elution buffer for assay buffer (100 mM Tris/HCl pH 8.0, 10 mM MgCl2, 2.5 mM KH2PO4, 6 mM glucose-6-phosphate, 5 mM NaHCO3, 0.1 mM EDTA, 5 mM DTT). The buffer-exchanged sample was eventually concentrated by ultrafiltration (30 kDa cutoff, Millipore).
Activity of purified PPDK was measured according to Salahas et al., Doyle et al. in a 96 well microtiter plate layout by a coupled spectrophotometrical assay. In this assay, the carboxylation of PEP by PEPC is linked to the oxidation of NADH by NADH-malate dehydrogenase (NADH-MDH). PEP is formed by PPDK via ATP-driven phosphorylation of pyruvate. Eventually, the consumption of one molecule NADH is equivalent to the formation of one molecule of PEP by PPDK. The assay was performed in a sample volume of 100 μL at 30°C in a M200 plate reader (Tecan, Crailsheim, GER). 0.2 μM PPDK were mixed with 0.2 mM NADH, 2.5 mM sodium pyruvate, 0.8 U bacterial PEPC (Sigma-Aldrich, Darmstadt, GER) and 2 U NADH-MDH (Sigma-Aldrich). The reaction mixture was filled up to a total volume of 100 μL per sample with assay buffer (100 mM Tris/HCl pH 8.0, 10 mM MgCl2, 2.5 mM KH2PO4, 6 mM glucose-6-phosphate, 5 mM NaHCO3, 0.1 mM EDTA, 5 mM DTT). PPDK was pre-incubated for 20 min at 30°C to ensure full activity. Inhibitors were dissolved in water free dimethyl sulfoxide (DMSO) with a final concentration of 10 mM and were added prior to adjusting the final sample volume. To account for possible effects of DMSO on PPDK activity, the solvent was added to the controls in an amount equal to the largest DMSO concentration used in the experiments. Incubation time of the final sample mixture including inhibitors and PPDK was 15 min. Initial comparative screening was perfomed using 100 μM of each compound. The absorbance at 340 nm was recorded for 30 s with an interval of 300 ms. […] A four-parameter log-logistic dose-response curve was then globally fitted to the individual replicates using the R software collection and the R package “drc” [28] as proposed by assessment of Akaike’s information criterion (AIC). PPDK was incubated for 10 min with the inhibitors before each measurement. To exclude PEPC or NADH-MDH inhibition by the selected compounds, the initial screening assay was repeated in triplicates for those compounds without adding PPDK and starting the reaction by injection of PEP instead of ATP.

Another assay deals with Zea mays leaf slices. Kind of assay: Inhibition of oxygen evolution during C4 photosynthesis, leaf slices, Clark-type O2 electrode. The format is cell-based. Conditions: for inhibition at 20 µg/mL: 20 μg mL^−1; for inhibition at 40 µg/mL: 40 μg mL^−1. The method, then:
Oxygen (O2) evolution, driven by the C4 acid cycle, was measured according to refs [21, 22, 31]. The reaction chamber of a Clark-type O2 electrode (Hansatech, Norfolk, UK) was filled with 1 mL of degassed buffer containing 0.33 M sorbitol, 2.5 mM NaH2PO4, 2.5 mM MgCl2, 25 mM HEPES/KOH pH 7.5, 50 μM MnCl2 and 2.5 mM dithiothreitol (DTT). An area sized approx. 1 cm^2 was cut from a mature leaf of the C4 model plant Zea mays and processed into slices of ∼ 1 mm width. The leaf slices were added to the electrode chamber and the recording of O2 evolution was started while keeping the chamber in the dark. The O2 evolution rate recorded in this period was later substracted from the subsequently recorded rates to account for the electrode drift. Once the system had stabilized, the chamber was illuminated using a Schott KL 1500 electronic light source. Again, the system was given time to stabilize before the C4-driven O2 evolution was initiated by the addition of first NaHCO3 and then pyruvate in final concentrations of 4 mM each. […] All measurements were done in triplicates.
Directly following the measurement, leaf slices were removed from the chamber and transferred to 1 mL of 80% acetone (v/v) for chlorophyll extraction. The samples were kept at 4°C in the dark for 48 h.

The next assay deals with Zea mays PPDK. More on the design: method as in earlier work. Conditions: PPDK from leaf extracts; ref 21 (Haines et al.); cited from earlier work.

The structures appear in SMILES notation. Entries after “also recorded” stand apart in the source; their conditions may differ.

What is called IC50 is the concentration at which inhibition is half-maximal. As a reminder, the inhibition is the drop in the measured response relative to a control, in per cent. Low values mean little suppression, high ones strong suppression.

As to `Cc1ccc(F)c(NC(=O)Nc2ccc(-c3cccc4[nH]nc(N)c34)cc2)c1` [ABT-869], in assay [1], the IC50 is 0.004 µM. Also, in assay [2], the IC50 was determined as 11.2 ± 0.24 µM and the “Residual PPDK activity relative to DMSO-treated controls” value is listed as “below 30%”.

In the assay on Zea mays leaf slices, `O=C1NC(=O)C(c2c[nH]c3ccccc23)=C1c1c[nH]c2ccccc12` [BIM IV, bisindolylmaleimide IV] returned an inhibition at 20 µg/mL of 20% and an inhibition at 40 µg/mL of 36%. In assay [2], this compound came in with an IC50 of 0.76 ± 0.13 µM.

As for `CN(C)CC1CCn2c(c(C3=C(c4cn(C)c5ccccc45)C(=O)NC3=O)c3ccccc32)C1` (stereo not shown) [BIM XI, bisindolylmaleimide XI], in assay [2] (initial screening), the “Effect on PPDK activity” value is “did not show any effect; also recorded: no effect”.

As for `COc1ccc2c(c1)c(C1=C(c3c[nH]c4ccccc34)C(=O)NC1=O)cn2CCCN(C)C` [Go6983], in the assay with Zea mays leaf slices, at 20 µg/mL the inhibition was 19% and 40 µg/mL produced 29% inhibition. In assay [2], this compound yielded an IC50 of 1.5 ± 0.6 µM.

On to `CN1C(=O)C(c2c[nH]c3ccccc23)=C(c2c[nH]c3ccccc23)C1=O` [bisindolylmaleimide V], for which the “Residual PPDK activity relative to DMSO-treated controls” value in assay [2] was 15%.

Regarding `C=C1CCC[C@H]2[C@](C)(CC3=C(O)C(=O)C=C(OC)C3=O)[C@@H](C)CC[C@]12C` [ilimaquinone], the IC50 was 292 ± 23 µM in the assay with Zea mays PPDK and 740 ± 566 µM in assay [2].
